According to PMC6112376, “Comprehensive Analyses and Prioritization of Tox21 10K Chemicals Affecting Mitochondrial Function by in-Depth Mechanistic Studies” (Environmental Health Perspectives, 2018):
Read-outs that look alike come from different tables or passages of the source.

Legend:
[1] = tested on: rat primary hepatocytes; assay: MMP assay in rat primary hepatocytes; settings: Rattus norvegicus, Hepatocyte, 1 h
[2] = tested on: HepG2 cells; assay: cells; settings: Homo sapiens
[3] = tested on: Caenorhabditis elegans (Bristol N2); assay: C. elegans larval development and growth assay
[4] = tested on: Nrf2/ARE (ARE-bla HepG2 cells); assay: ARE β-lactamase reporter gene assay; type: cell-based, human; settings: Homo sapiens, HepG2; 16 h incubation; mean±SD of three experiments; read-out: ARE (HepG2) EC50
[5] = tested on: isolated rat liver mitochondria; assay: Oxygen consumption, Clark-type oxygen electrode; type: biochemical
[6] = tested on: HepG2 cells; settings: cited from earlier work
[7] = tested on: rat primary hepatocytes
[8] = tested on: p53 (p53-bla HCT-116 cells); assay: p53 β-lactamase reporter gene assay; type: cell-based, human; settings: Homo sapiens; 16 h incubation; mean±SD of three experiments
[9] = tested on: hNSC; assay: MMP assay in human neural stem cells (hNSC); type: cell-based; settings: Homo sapiens, Neural stem cell, 1 h, read-out: hNSC IC50 (MMP)
[10] = tested on: HeLa cells expressing YFP-Parkin; assay: Parkin translocation assay; type: cell-based, human
[11] = tested on: HepG2 cells; assay: Intracellular ATP content (cell viability) assay; type: cell-based, human; settings: Homo sapiens, HepG2, 40 h
[12] = tested on: Caenorhabditis elegans strain PE255; assay: In vivo C. elegans ATP status assay
[13] = tested on: HepG2 cells; assay: ROS-Glo hydrogen peroxide (ROS) assay; type: cell-based, human; settings: Homo sapiens, HepG2, 2 h, read-out: ROS (HepG2) EC50

O=C(Nc1ccc(Cl)cc1)Nc1ccc(Cl)c(Cl)c1 [Triclocarban]
IC50 ([1]; read-out: IC50 in rat primary hepatocytes (MMP, tier-one retest)): 170 nM | IC50 ([1]; read-out: Rat hepatocytes IC50 (MMP)): 1770 nM | IC50 ([2]; HepG2, 1 h, read-out: HepG2 IC50 Galactose (MMP)): 1360 nM | IC50 ([2]; HepG2, 1 h, read-out: HepG2 IC50 Glucose (MMP)): 930 nM | IC50 ([2]; HepG2, read-out: IC50 in HepG2 cells (MMP, tier-one retest)): 170 nM | Emax ([2]; HepG2, read-out: MMP assays efficacy (%) HepG2): 102% | EXT: mean difference in nematode size relative to plate controls ([3]; 0.05 µM): 0.05115 | EXT: mean difference in nematode size relative to plate controls ([3]; 0.1 µM): -0.1287 | EXT: mean difference in nematode size relative to plate controls ([3]; 0.5 µM): 0.279 | larval growth effect at 0.5μM ([3]; 0.5 µM): severe larval growth arrest | EXT: mean difference in nematode size relative to plate controls ([3]; 1 µM): 1.127 | EXT: mean difference in nematode size relative to plate controls ([3]; 5 µM): 1.268 | EXT: mean difference in nematode size relative to plate controls ([3]; 10 µM): 1.264 | EXT: mean difference in nematode size relative to plate controls ([3]; 25 µM): 1.322 | EXT: mean difference in nematode size relative to plate controls ([3]; 50 µM): 1.038 | EXT: mean difference in nematode size relative to plate controls ([3]; 75 µM): 0.8579 | EXT: mean difference in nematode size relative to plate controls ([3]; 100 µM): 0.6913 | effect on larval growth (in words) ([3]; 0.5–100μM): inhibited | minimal effective concentration ([3]; Caenorhabditis elegans, read-out: LEC EXT: lowest effect concentration for extinction, a measure of nematode size): 0.5 µM | EC50 [4]: 6680 nM | Potential Mechanism [5]: Uncoupler | effect on mitochondrial respiration (in words) [5]: effects similar to those of FCCP | I-ADP, % of control (O2 consumption rate) ([5]; 0.032 µM): 107 (58.8) % of control | I-sub, % of control (O2 consumption rate) ([5]; 0.032 µM): 115 (15.1) % of control | II-ADP, % of control (O2 consumption rate) ([5]; 0.032 µM): 93 (82.1) % of control | II-sub, % of control (O2 consumption rate) ([5]; 0.032 µM): 93 (22.8) % of control | I-ADP, % of control (O2 consumption rate) ([5]; 0.16 µM): 96 (52.6) % of control | I-sub, % of control (O2 consumption rate) ([5]; 0.16 µM): 118 (15.5) % of control | II-ADP, % of control (O2 consumption rate) ([5]; 0.16 µM): 104 (91.7) % of control | II-sub, % of control (O2 consumption rate) ([5]; 0.16 µM): 114 (28.1) % of control | I-ADP, % of control (O2 consumption rate) ([5]; 0.8 µM): 103 (56.5) % of control | I-sub, % of control (O2 consumption rate) ([5]; 0.8 µM): 153 (20.1) % of control | II-ADP, % of control (O2 consumption rate) ([5]; 0.8 µM): 99 (87.1) % of control | II-sub, % of control (O2 consumption rate) ([5]; 0.8 µM): 128 (31.4) % of control | I-ADP, % of control (O2 consumption rate) ([5]; 20 µM): 143 (78.2) % of control | I-sub, % of control (O2 consumption rate) ([5]; 20 µM): 631 (82.6) % of control | II-ADP, % of control (O2 consumption rate) ([5]; 20 µM): 95 (84.1) % of control | II-sub, % of control (O2 consumption rate) ([5]; 20 µM): 290 (71.4) % of control | MMP assays efficacy (%) qHTS-HepG2 [6]: -119±8% | IC50 ([6]; read-out: MMP assays IC50 (µM), qHTS-HepG2): 0.14 ± 0.05 µM | MMP assays efficacy (%) Rat Hepatocytes [7]: -113±53% | Rat hepatocytes (efficacy) (MMP) [7]: 1.77±0.60 ( −73.7±3.11 ) % | EC50 [8]: 5330 ± 2020 nM | IC50 [9]: 430 nM | Parkin recruitment [10]: Active | IC50 ([11]; read-out: ATP (HepG2, galactose) IC50): 15800 nM | IC50 ([11]; read-out: ATP (HepG2, glucose) IC50): 19100 nM | LUM: mean difference in luminescence (ATP content) relative to plate controls ([12]; 0.05 µM): -0.00831 | LUM: mean difference in luminescence (ATP content) relative to plate controls ([12]; 0.1 µM): 0.1123 | LUM: mean difference in luminescence (ATP content) relative to plate controls ([12]; 0.5 µM): 0.4779 | LUM: mean difference in luminescence (ATP content) relative to plate controls ([12]; 1 µM): 2.3316 | LUM: mean difference in luminescence (ATP content) relative to plate controls ([12]; 5 µM): 2.049 | LUM: mean difference in luminescence (ATP content) relative to plate controls ([12]; 10 µM): 3.074 | LUM: mean difference in luminescence (ATP content) relative to plate controls ([12]; 25 µM): 3.397 | LUM: mean difference in luminescence (ATP content) relative to plate controls ([12]; 50 µM): 3.34 | LUM: mean difference in luminescence (ATP content) relative to plate controls ([12]; 75 µM): 3.2375 | LUM: mean difference in luminescence (ATP content) relative to plate controls ([12]; 100 µM): 2.494 | effect on ATP content (in words) ([12]; 0.5–100μM): inhibited | minimal effective concentration ([12]; Caenorhabditis elegans, read-out: LEC LUM: lowest effect concentration for luminescence, a measure of nematode ATP content): 0.5 µM | EC50 [13]: 31800 nM
